Data on 8 compounds can be found in PubChem BioAssay (NCI).

Holding throughout (assay): growth of human tumour cells (NCI), 48 h
The test system of assay [1] is NCI-H23 lung.
Assay [2] relates to HT29 colon.
Assay [3] concerns HCT-15 colon.
The subject of assay [4] is SK-OV-3 ovarian.
The subject of assay [5] is UACC-62 melanoma.
In assay [6] the test system is RPMI-8226 leukemia.
The test system of assay [7] is OVCAR-3 ovarian.
The subject of assay [8] is SK-MEL-2 melanoma.
In assay [9] the test system is RXF 393 renal.
The subject of assay [10] is DU-145 prostate.

“And” between values parts separate entries of the source, which are not always exact repeats. Equal values may be shown once.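 96-well plates; 48 h exposure; 5 concentrations. Endpoints by linear interpolation between flanking doses. Not reached: highest tested concentration assigned. At the GI50, growth is halved. TGI is the concentration that stops growth completely.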

As to `O=c1c2ccccc2c(Br)c(Br)c2ccccc12`, the GI50 in assay [1] was 12.7 µM; in assay [2], 3.04 µM; in [3], 10.7 µM; in assay [4], 38.3 µM; in assay [5], 18.3 µM; in assay [6], 2.51 µM. In addition, the GI50 in [7] is 3.37 µM; in assay [8], 13.3 µM; in assay [9] it was 3.32 µM; in assay [10], 4.02 µM. Besides, the TGI in assay [1] was 38.7 µM; in assay [2], 8.13 µM; in assay [3], more than 100 µM; in assay [4] it was more than 100 µM; in [5] it was 59.5 µM; in assay [6] it was 5.84 µM. Further, the TGI came out at 12 µM in assay [7], 32.5 µM in [8], 12.7 µM in assay [9] and 15.8 µM in assay [10].

Regarding `Cc1ccc2c(c1)c1nc3cc(C)c(C)cc3nc1n2CCN(C)C`, the GI50 in assay [1] was 2.04 µM; in assay [2] it was 1.23 µM; in [3], 1.91 µM; in [4], 2.61 µM; in [5], 1.59 µM; in assay [6], 2.06 µM. Besides, the GI50 was 2.37 µM in [7], 2.15 µM in [8], 1.32 µM in assay [9] and 2.9 µM in [10]. Moreover, the TGI in assay [1] worked out at 5.9 µM; in [2], 6.54 µM; in assay [3], 7.75 µM; in assay [4] it was 8.52 µM; in [5], 3.57 µM; in assay [6], 5.2 µM. The TGI in assay [7] was found to be 6.59 µM; in assay [8], 4.87 µM; in assay [9] it was 3.4 µM; in assay [10] it was 10.6 µM.

As to `Cc1ccc(NC(=O)Cc2ccc(/C=C/C(=O)c3ncc[nH]3)cc2)cc1`, the GI50 in assay [1] was 5.85 µM; in [2], 0.955 µM; in assay [3], 2.01 µM; in [4], 12.8 µM; in [5], 8.29 µM; in assay [6], 1.79 µM. The GI50 in assay [7] was 1.67 µM; in [8] it was 18.1 µM; in [9] it was 7.68 µM; in assay [10], 4.56 µM. Moreover, the TGI is more than 25 µM in assay [1]; 5.09 µM in assay [2]; 15.6 µM in [3]; more than 25 µM in [4]; more than 25 µM in assay [5]; 11.8 µM in [6]. Moreover, the TGI in assay [7], in assay [8], in [9] and in assay [10] was more than 25 µM each time.

Take `S=C(N/N=C(/c1ccccc1)c1ccccn1)N1CCCCC1`: the TGI in assay [1] is 1.74 µM; in assay [2], 2.17 µM and 2.44 µM; in assay [3] it was 2.22 µM and 3.94 µM; in assay [4], 2.36 µM and 1.24 µM; in assay [5], 3.16 µM; in assay [7] it was 1.88 µM and 1.39 µM. The TGI in [8] was 2.01 µM and 2.36 µM; in [9], 1.43 µM and 3.38 µM; in [10], 2.32 µM and 2.87 µM. The GI50 in assay [2] is 0.0345 µM; in assay [3] it was less than 0.001 µM; in assay [4], less than 0.001 µM; in assay [5], 0.965 µM; in [6], less than 0.001 µM; in assay [7] it was less than 0.001 µM. In addition, the figures for the GI50 in assay [8], in assay [9] and in assay [10] were less than 0.001 µM, 0.0129 µM and 1.11 µM, respectively.

For the compound `N#C/C(=N\Nc1ccc(Cl)cc1)C(=O)Nc1cc(-c2ccccc2)nn1-c1ccccc1`, the GI50 in assay [1] is 2.65 µM; in [2], 3.32 µM; in [3], 2.14 µM; in [4], 2.28 µM; in [5], 2.03 µM; in assay [6], 1.77 µM. Further, the GI50 is 2.71 µM in [7], 2.39 µM in [8], 2.06 µM in assay [9] and 3.9 µM in [10]. The TGI in [1] is more than 100 µM; in [2], more than 100 µM; in assay [3] it was more than 100 µM; in assay [4] it was 6.66 µM; in [5], more than 100 µM; in [6] it was 6.67 µM. For the same compound, the TGI in [7] is more than 100 µM; in assay [8] it was 8.89 µM; in [9], 6.32 µM; in assay [10] it was more than 100 µM.

Turning to `COc1ccc2c(c1O)C13CCN(C)C(C2)C1CCC1(C3)OCCO1` (stereo not drawn), the TGI in [1], in assay [2], in [3], in assay [4], in [5] and in [6] was more than 100 µM in each case. The TGI in assay [7], in assay [8], in assay [9] and in assay [10] was more than 100 µM throughout.

Take `O=C(Nc1ccccc1)c1nn(-c2cc(S(=O)(=O)O)c([N+](=O)[O-])cc2Cl)[n+](-c2cc(S(=O)(=O)[O-])c([N+](=O)[O-])cc2Cl)n1`: the TGI in [1], in assay [2], in assay [3], in assay [4], in assay [5] and in assay [6] was more than 100 µM throughout. The TGI in [7], in assay [8], in [9] and in assay [10] was more than 100 µM each time.

Take `O=c1cc(-c2ccccc2)oc2cc(O)c(O)c(O)c12`: the GI50 in [1] was 12.7 µM; in assay [2] it was 42.7 µM; in assay [3], 8.25 µM; in assay [4] it was 59.6 µM; in assay [5] it was 9.39 µM; in [6], 9.27 µM. For the same compound, the GI50 in [7] is 16 µM; in [8], 53.9 µM; in [9] it was 78.6 µM; in assay [10] it was 25.1 µM. The TGI in assay [1] was 39.7 µM; in assay [2], more than 100 µM; in [3] it was 58.8 µM; in assay [4], more than 100 µM; in assay [5], 31.9 µM; in assay [6] it was more than 100 µM. Further, the TGI in assay [7] is 41.7 µM; in assay [8] it was more than 100 µM; in [9], more than 100 µM; in assay [10], more than 100 µM.
